Laboratory results: ChEMBL document CHEMBL3045669, “Evaluation of crude toxin and metabolite produced by Helminthosporium gramineum Rabenh for the control of rice sheath blight in paddy fields” (2007)

Legend:
Format in all cases: functional
Settings in all cases: read-out: GI
[1] = system: Rhizoctonia solani; assay: Growth inhibition of Rhizoctonia solani AG-1 IA at 50 ug/ml after 24 hr
[2] = system: Rhizoctonia solani; assay: Growth inhibition of Rhizoctonia solani AG-1 IA at 10 ug/ml after 24 hr
[3] = system: Rhizoctonia solani; assay: Growth inhibition of Rhizoctonia solani AG-1 IA at 25 ug/ml after 24 hr
[4] = system: Rhizoctonia solani; assay: Growth inhibition of Rhizoctonia solani AG-1 IA at 1 ug/ml after 24 hr
[5] = system: Rhizoctonia solani; assay: Growth inhibition of Rhizoctonia solani AG-1 IA at 200 ug/ml after 24 hr
[6] = system: Rhizoctonia solani; assay: Growth inhibition of Rhizoctonia solani AG-1 IA at 100 ug/ml after 24 hr

Work on `CC(C)=C[C@H]1C[C@H](C)[C@]2(CC[C@]3(C)C[C@H]4[C@H](C(=O)C[C@@]4(C)O)/C(C=O)=C\C[C@H]32)O1` [OPHIOBOLIN A] yielded an inhibition of growth at 50 µg/mL [1] of 100%, an inhibition of growth at 10 µg/mL [2] of 85.9% and an inhibition of growth at 25 µg/mL [3] of 100%. The inhibition of growth at 1 µg/mL [4] was 70.2%.
Compound `OCC1=C[C@H](N[C@H]2C[C@H](CO)[C@@H](O[C@@H]3O[C@H](CO)[C@@H](O)[C@H](O)[C@H]3O)[C@H](O)[C@H]2O)[C@H](O)[C@@H](O)[C@@H]1O` [VALIDAMYCIN] has an inhibition of growth at 200 µg/mL [5] of 45.2%, an inhibition of growth at 50 µg/mL [1] of 22.6% and an inhibition of growth at 10 µg/mL [2] of 5.7%. The inhibition of growth at 100 µg/mL [6] was 34% and the inhibition of growth at 25 µg/mL [3] was 17%.
